Data taken from US20190175744A1, “INSULIN-INCRETIN CONJUGATES” (Merck Sharp & Dohme Corp., priority 2016, published 2019).
Values belong to the compound of their own block, whether it stands above or below them.

Legend:
human GLP1R = human GLP1R (Homo sapiens, UniProt P43220); assay: cAMP activity assay, cells expressing human GLP1R; type: cell-based
Protocol: Activity of the incretin peptides or the conjugates at the Glucagon receptor (GCGR) and GLP-1 receptor (GLP1R) may be measured in a cAMP activity assay as follows.
Peptides are dissolved in 100% DMSO and serially diluted to generate 10 point titrations. The peptide solutions are then transferred into 384-well assay plates (150 nL/well). Assay ready frozen cells expressing human GLP1R or human GCGR are suspended in growth media consisting of DMEM medium (GIBCO), 10% FBS (GIBCO), 1×NEAA(GIBCO), 1×P/S (GIBCO), 10 μg/mL Blasticidin (GIBCO) and 200 μg/mL Hygromycin (GIBCO). […] The cell suspensions (15 μL) are then added to the assay plates containing the peptide solutions (30,000 cells/well for human GCGR; 10,000 cells/well for human GLP1R). The cells are incubated for one hour at room temperature in the dark.
Production of cAMP may be determined using HitHunterr cAMPXS kits (DiscoverX) following the manufacturer's protocol. The plates are incubated for overnight at room temperature in the dark. Luminescence may be measured using an EnVision Multilabel plate reader (Perkin Elmer). Native GLP-1 and Glucagon (Bachem) may be used as control peptides. EC50 values may be calculated using uses a 4 parameter logistic fit based on the Levenberg-Marquardt algorithm.

human GCGR = target: T1, human GCGR (Homo sapiens, UniProt P47871); assay: cAMP activity assay, cells expressing human GCGR; type: cell-based;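 also: cAMP production read by luminescence after one hour of peptide exposure at room temperature, EC50 from logistic curve fit, native glucagon and GLP-1 as control peptides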
T1 construct: expressed in transfected cells; grown with Blasticidin and Hygromycin

Insulin Receptor = target: T2, Insulin Receptor (Sus scrofa, UniProt F1SCL0); assay: Insulin Receptor Binding Assay, minipig; conditions: Table 7, control molecules, minipig IR
T2 construct: expressed in transfected cells
Protocol: Method 1 IR binding assay is a whole cell binding method using CHO cells overexpressing human IR(B). The cells are grown in F12 media containing 10% FBS and antibiotics (G418, Penicillin/Strepavidin), plated at 40,000 cells/well in a 96-well tissue culture plate for at least eight hours. The cells are then serum starved by switching to DMEM media containing 1% BSA (insulin-free) overnight. The cells are washed twice with chilled DMEM media containing 1% BSA (insulin-free) followed by the addition of conjugate at appropriate concentration in 90 μL of the same media. The cells are incubated on ice for 60 minutes.
Method 2 IR binding assay is run in a scintillation proximity assay (SPA) in 384-well format using cell membranes prepared from CHO cells overexpressing human IR(B) grown in F12 media containing 10% FBS and antibiotics (G418, Penicillin/Strepavidin). Cell membranes are prepared in 50 mM Tris buffer, pH 7.8 containing 5 mM MgCl2. The assay buffer contains 50 mM Tris buffer, pH 7.5, 150 mM NaCl, 1 mM CaCl2, 5 mM MgCl2, 0.1% BSA and protease inhibitors (Complete-Mini-Roche). Cell membranes are added to WGA PVT PEI SPA beads (5 mg/mL final concentration) followed by addition of conjugate at appropriate concentrations.

minipig IR = target: T3, minipig IR (Sus scrofa, UniProt F1SCL0); assay: Insulin Receptor Phosphorylation (pAkt) Assay, CHO cells overexpressing minipig IR; type: cell-based; conditions: Table 7, control molecules, read-out: Insulin Receptor pAK Assay EC50 Minipig
T3 construct: expressed in transfected cells; host or cells: CHO cells (G418 selection)

human IR = target: T4, human IR (Homo sapiens, UniProt P06213); assay: Insulin Receptor Phosphorylation (pAkt) Assay, CHO cells overexpressing human IR; type: cell-based; conditions: Table 7, control molecules, read-out: Insulin Receptor pAK Assay EC50 Human
T4 construct: expressed in transfected cells; host or cells: CHO cells (G418 selection)
T4 sequence (P06213 28-758 limits assumed): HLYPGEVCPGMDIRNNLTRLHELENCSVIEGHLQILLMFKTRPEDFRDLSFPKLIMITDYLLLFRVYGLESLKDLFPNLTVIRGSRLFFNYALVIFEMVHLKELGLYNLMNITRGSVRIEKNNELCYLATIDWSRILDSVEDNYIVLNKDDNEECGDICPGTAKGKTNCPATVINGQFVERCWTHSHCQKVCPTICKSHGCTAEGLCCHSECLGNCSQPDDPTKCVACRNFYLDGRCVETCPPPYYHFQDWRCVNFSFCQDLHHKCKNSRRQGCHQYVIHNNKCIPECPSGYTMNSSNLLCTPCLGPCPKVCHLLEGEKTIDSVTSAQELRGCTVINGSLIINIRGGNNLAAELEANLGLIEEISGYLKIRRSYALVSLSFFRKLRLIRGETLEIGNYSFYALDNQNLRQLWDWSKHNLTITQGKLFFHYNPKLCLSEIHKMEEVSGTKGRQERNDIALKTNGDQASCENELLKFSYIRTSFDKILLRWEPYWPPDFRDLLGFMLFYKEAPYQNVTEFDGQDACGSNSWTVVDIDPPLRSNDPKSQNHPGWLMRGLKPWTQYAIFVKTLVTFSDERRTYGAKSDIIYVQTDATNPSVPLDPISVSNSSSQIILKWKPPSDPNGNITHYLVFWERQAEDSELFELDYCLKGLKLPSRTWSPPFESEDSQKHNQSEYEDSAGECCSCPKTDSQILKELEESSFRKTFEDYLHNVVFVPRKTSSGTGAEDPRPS
T4 sequence (P06213 763-1382 limits assumed): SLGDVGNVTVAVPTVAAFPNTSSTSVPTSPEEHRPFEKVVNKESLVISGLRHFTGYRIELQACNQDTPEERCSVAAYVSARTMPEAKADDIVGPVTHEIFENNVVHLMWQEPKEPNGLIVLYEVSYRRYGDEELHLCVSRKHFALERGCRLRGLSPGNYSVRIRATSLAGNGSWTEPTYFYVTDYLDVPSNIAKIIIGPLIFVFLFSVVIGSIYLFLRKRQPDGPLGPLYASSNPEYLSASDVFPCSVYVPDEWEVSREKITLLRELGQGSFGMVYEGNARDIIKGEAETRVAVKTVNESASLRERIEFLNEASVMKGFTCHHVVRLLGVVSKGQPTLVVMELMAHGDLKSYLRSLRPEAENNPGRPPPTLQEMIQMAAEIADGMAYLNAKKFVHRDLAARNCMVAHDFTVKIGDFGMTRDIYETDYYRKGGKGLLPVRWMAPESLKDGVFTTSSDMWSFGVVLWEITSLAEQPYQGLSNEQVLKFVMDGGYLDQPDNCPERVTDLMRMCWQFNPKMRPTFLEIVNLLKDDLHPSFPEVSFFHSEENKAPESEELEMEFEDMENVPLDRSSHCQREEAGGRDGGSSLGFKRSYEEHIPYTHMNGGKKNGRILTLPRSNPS

T1 sequence (P47871 26-477): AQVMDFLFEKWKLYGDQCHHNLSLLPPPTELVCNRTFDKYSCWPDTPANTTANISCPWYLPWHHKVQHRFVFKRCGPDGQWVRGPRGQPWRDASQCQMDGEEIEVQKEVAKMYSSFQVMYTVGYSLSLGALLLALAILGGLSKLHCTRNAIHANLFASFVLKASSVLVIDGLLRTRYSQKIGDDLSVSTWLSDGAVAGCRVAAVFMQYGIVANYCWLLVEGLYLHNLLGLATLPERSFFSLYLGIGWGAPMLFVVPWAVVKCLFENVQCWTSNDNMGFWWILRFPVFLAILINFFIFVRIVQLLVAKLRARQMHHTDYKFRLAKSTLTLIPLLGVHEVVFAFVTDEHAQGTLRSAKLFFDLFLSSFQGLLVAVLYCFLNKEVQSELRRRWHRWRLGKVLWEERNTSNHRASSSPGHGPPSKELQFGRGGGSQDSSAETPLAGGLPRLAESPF
T2 sequence (F1SCL0 28-1382): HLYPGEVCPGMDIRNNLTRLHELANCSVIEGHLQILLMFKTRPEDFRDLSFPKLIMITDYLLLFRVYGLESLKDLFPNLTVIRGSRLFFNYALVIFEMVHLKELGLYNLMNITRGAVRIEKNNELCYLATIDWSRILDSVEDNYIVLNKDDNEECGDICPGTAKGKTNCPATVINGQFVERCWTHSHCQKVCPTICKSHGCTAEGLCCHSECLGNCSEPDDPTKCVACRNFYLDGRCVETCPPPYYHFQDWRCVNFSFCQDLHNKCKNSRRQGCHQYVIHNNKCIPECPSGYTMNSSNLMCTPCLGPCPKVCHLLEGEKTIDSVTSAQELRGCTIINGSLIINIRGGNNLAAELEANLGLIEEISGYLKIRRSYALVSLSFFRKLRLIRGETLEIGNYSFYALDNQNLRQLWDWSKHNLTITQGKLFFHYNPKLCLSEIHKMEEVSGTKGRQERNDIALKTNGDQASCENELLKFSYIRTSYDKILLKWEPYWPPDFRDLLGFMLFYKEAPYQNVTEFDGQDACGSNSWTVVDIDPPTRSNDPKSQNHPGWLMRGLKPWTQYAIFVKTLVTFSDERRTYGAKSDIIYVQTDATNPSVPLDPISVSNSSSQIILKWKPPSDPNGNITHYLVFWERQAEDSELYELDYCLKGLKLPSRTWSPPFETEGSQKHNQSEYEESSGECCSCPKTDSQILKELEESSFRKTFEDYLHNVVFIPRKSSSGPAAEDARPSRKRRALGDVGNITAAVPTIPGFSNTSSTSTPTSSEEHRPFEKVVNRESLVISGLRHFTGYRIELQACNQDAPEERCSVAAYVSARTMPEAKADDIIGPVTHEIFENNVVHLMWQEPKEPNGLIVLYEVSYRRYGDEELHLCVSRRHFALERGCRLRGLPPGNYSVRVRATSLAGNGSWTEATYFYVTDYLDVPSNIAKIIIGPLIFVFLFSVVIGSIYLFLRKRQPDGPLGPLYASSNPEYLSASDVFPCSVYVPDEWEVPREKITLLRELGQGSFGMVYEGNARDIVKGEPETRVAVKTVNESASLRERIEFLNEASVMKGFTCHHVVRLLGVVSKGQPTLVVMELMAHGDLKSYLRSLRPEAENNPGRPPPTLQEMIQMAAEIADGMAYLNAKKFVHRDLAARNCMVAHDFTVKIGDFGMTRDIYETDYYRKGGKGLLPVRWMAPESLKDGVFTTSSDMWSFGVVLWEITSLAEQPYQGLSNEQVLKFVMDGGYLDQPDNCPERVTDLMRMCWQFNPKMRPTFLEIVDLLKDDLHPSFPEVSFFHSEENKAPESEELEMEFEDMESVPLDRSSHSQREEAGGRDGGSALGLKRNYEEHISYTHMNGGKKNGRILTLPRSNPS
T3 sequence (F1SCL0 28-1382): as above
human GLP1R, sequence (P43220 24-463): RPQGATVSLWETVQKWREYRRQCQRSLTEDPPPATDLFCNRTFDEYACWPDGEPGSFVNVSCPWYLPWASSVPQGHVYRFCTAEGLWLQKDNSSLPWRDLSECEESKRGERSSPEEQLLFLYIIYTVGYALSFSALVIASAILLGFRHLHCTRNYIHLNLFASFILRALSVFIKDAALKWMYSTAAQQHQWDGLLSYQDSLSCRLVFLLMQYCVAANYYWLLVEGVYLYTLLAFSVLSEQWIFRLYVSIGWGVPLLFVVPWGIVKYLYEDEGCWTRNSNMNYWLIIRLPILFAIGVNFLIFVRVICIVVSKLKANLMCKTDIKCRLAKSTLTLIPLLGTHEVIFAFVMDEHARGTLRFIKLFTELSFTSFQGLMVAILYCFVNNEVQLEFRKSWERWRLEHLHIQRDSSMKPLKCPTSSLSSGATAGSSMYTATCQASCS

Compound: CCCCCCCCCCCCCCCC(=O)N[C@@H](CCC(=O)N[C@@H](CCC(=O)NCCCC[C@H](NC(=O)[C@H](CC(=O)O)NC(=O)[C@H](CO)NC(=O)[C@@H](NC(=O)[C@H](Cc1ccccc1)NC(=O)[C@@H](NC(=O)CNC(=O)[C@H](CCC(=O)O)NC(=O)[C@@H](CO)NC(=O)[C@@H](N)Cc1c[nH]cn1)[C@@H](C)O)[C@@H](C)O)C(=O)N[C@@H](CO)C(=O)N[C@@H](CCCCN)C(=O)N[C@@H](Cc1ccc(O)cc1)C(=O)N[C@@H](CC(C)C)C(=O)N[C@@H](CC(=O)O)C(=O)N[C@@H](CCC(=O)O)C(=O)N[C@@H](CCCNC(=N)N)C(=O)N[C@@H](C)C(=O)N[C@@H](C)C(=O)N[C@@H](CCC(N)=O)C(=O)N[C@@H](CC(=O)O)C(=O)N[C@@H](Cc1ccccc1)C(=O)N[C@H](C(=O)N[C@@H](CCCCN=[N+]=[N-])C(=O)N[C@@H](Cc1c[nH]c2ccccc12)C(=O)N[C@@H](CC(C)C)C(=O)N[C@@H](CC(C)C)C(=O)N[C@@H](CC(=O)O)C(=O)N[C@H](C(N)=O)[C@@H](C)O)C(C)C)C(=O)O)C(=O)O [PEP75]
EC50 (human GLP1R): 0.07 nM | EC50 (human GCGR): > 5 nM | GCGR/GLP1R ratio (human GCGR; Table 5, ratio of hGCGR EC50 to hGLP1R EC50): >72

EC50 (Insulin Receptor): 8.46 nM
Compound: Insulin degludec [ID]

EC50 (minipig IR): 0.5 nM | EC50 (human IR): 0.51 nM
Compound: Insulin levemir [IL]
